Active and inactive are the calls of the source.
How the values were obtained:
Settings in all cases: dose 5-15 nM
HUVEC = experiment: Antiangiogenic activity against human HUVEC cells assessed as inhibition of cell migration measured after 8 hrs by scratch wound healing assay; assay type: functional, cell-based
HMEC-1 = experiment: Antiangiogenic activity against human HMEC-1 cells assessed as inhibition of cell invasion measured after 24 hrs by Transwell invasion assay; assay type: functional, cell-based
[1] = molecular target: Vascular endothelial growth factor receptor 2 (Homo sapiens) (UniProt P35968); experiment: Inhibition of VEGF-A-mediated VEGFR2 signaling pathway in human HMEC-1 cells assessed as reduction in mTOR phosphorylation at Ser2448 residue at 5 to 15 nM incubated for 36 hrs by western blot analysis; assay type: cell-based
Sequence of Vascular endothelial growth factor receptor 2 (Homo sapiens) (P35968 whole entry): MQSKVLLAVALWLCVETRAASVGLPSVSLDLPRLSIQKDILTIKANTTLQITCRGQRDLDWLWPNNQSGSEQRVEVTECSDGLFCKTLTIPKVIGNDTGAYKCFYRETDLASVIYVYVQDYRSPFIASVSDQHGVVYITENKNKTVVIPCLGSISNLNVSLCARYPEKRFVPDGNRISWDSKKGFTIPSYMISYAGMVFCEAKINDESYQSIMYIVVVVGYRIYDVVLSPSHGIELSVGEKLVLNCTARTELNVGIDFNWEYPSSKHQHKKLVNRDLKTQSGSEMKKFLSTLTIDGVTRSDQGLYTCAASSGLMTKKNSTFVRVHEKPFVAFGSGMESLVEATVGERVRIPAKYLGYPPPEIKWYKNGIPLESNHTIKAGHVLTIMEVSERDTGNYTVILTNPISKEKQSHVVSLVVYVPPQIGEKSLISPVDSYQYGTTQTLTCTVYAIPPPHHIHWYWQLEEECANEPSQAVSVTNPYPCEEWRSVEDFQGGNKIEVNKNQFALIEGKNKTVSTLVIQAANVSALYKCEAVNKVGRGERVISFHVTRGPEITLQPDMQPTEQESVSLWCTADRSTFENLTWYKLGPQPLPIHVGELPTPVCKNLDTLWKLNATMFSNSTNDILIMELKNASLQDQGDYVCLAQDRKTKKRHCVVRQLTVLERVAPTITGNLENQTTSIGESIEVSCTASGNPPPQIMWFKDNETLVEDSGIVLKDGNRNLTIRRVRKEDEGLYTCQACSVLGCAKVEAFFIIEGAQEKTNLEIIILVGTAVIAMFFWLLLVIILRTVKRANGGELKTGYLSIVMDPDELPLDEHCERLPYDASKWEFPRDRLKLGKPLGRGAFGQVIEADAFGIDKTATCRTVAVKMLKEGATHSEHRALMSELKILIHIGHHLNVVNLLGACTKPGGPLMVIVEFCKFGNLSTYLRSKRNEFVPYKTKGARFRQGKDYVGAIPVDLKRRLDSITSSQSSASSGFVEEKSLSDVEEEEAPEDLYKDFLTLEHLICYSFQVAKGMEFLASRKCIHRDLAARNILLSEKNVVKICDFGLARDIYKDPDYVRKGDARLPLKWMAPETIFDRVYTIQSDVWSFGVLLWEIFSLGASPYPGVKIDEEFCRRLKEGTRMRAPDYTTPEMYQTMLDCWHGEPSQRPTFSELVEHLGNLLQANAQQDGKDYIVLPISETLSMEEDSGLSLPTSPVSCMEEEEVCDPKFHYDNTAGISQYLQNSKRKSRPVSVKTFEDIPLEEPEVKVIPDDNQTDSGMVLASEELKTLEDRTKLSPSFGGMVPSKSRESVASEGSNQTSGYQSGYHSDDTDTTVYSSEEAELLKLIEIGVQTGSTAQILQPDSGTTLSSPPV

COc1ccc(C[C@@H]2NC(=O)[C@@]34OC(=O)O/C=C/[C@@](C)(O)C(=O)[C@@H](C)C/C=C/[C@H]3[C@H](O)[C@](C)(O)[C@@H](C)[C@@H]24)cc1 [SCOPARASIN B]
active: Activity (HUVEC) Dose-Dependent Effect | Activity (HMEC-1) Dose-Dependent Effect | inhibition [1]

— ChEMBL document CHEMBL5226385, “The Antiangiogenic and Antitumor Effects of Scoparasin B in Non-Small-Cell Lung Cancer” (J Nat Prod, 2023)
